Reference: the OPERA property sets (Mansouri et al. 2018)

Settings: not given

Row | SMILES | boiling point | melting point | ready biodegradability | log10 vapour pressure (mmHg) | log10 biodegradation half-life (days) | log10 Koc (L/kg) | log10 Henry constant (atm·m³/mol) | log10 Koa
1 | CCCCC(CCCC)CCCC | 218 °C |  |  |  |  |  |  | 
2 | C=CCCCCCCCCC=C | 208 °C |  |  |  |  |  |  | 
3 | CCOc1ccc(C#N)cc1 | 258 °C | 61.5 °C |  |  |  |  |  | 
4 | Cc1cc(C)cc(Br)c1 | 204 °C |  |  |  |  |  |  | 
5 | O=C(O)c1ccc(O)c(Cl)c1 |  | 171 °C | not readily biodegradable |  |  |  |  | 
6 | CC(C)CC1Nc2cc(Cl)c(S(N)(=O)=O)cc2S(=O)(=O)N1 (configuration not stated) |  | 222 °C |  |  |  |  |  | 
7 | COc1cccc(C(N)=O)c1 |  | 134 °C |  |  |  |  |  | 
8 | O=C(OC[C@H]1O[C@@H](Oc2ccccc2CO)[C@H](O)[C@@H](O)[C@@H]1O)c1ccccc1 |  | 180 °C |  |  |  |  |  | 
9 | CC(COc1ccc(C(C)(C)C)cc1)OS(=O)OCCCl (configuration not stated) |  | -31.7 °C |  |  |  |  |  | 
10 | CCCCCC#CCC(=O)O |  | 17 °C |  |  |  |  |  | 
11 | CCCCCCCCCCCCC1=C(OC(C)=O)C(=O)c2ccccc2C1=O |  | 59.6 °C |  |  |  |  |  | 
12 | Cc1ccc(C)c(C=O)c1 | 220 °C |  |  |  |  |  |  | 
13 | CCc1oc2ccccc2c1C(=O)c1cc(I)c(O)c(I)c1 |  | 167 °C |  |  |  |  |  | 
14 | CC(C)=CCC/C(C)=C/C=C/C(C)=C/C=C/C(C)=C/C=C/C=C(C)/C=C/C=C(C)/C=C/C=C(\C)CCCC(C)(C)O |  | 171 °C |  |  |  |  |  | 
15 | CC(=O)CCC(=O)OC(C)C | 209 °C |  |  |  |  |  |  | 
16 | CC(C)(C)C(=O)C1C(=O)c2ccccc2C1=O |  | 109 °C |  |  |  |  |  | 
17 | CC(=O)c1ccc(C#N)cc1 |  | 57.5 °C |  |  |  |  |  | 
18 | CCCCCCCCCCCCCC(N)=O |  | 104 °C |  |  |  |  |  | 
19 | CCCCNC(=S)NCCCC |  | 64 °C |  |  |  |  |  | 
20 | C[C@H]1O[C@H](O[C@H]2CC[C@H](n3ccc(NC(=O)c4ccc(NC(=O)[C@@](C)(N)CO)cc4)nc3=O)O[C@@H]2C)[C@H](O)[C@@H](O)[C@@H]1N(C)C |  | 167 °C |  |  |  |  |  | 
21 | CC(=O)c1cccc(C#N)c1 |  | 99 °C |  |  |  |  |  | 
22 | O=C(O)c1cc(Cl)c(Cl)cc1Cl |  | 166 °C |  |  |  |  |  | 
23 | CC(O)C#N (configuration not stated) | 183 °C | -40 °C |  | -0.925 |  |  |  | 

Row | SMILES | boiling point | melting point | ready biodegradability | log10 vapour pressure (mmHg) | log10 biodegradation half-life (days) | log10 Koc (L/kg) | log10 Henry constant (atm·m³/mol) | log10 Koa
24 | CC(=O)CCc1ccccc1 | 234 °C | -13 °C | not readily biodegradable |  |  |  |  | 
25 | Cc1ccccc1NC=O | 288 °C | 62 °C |  |  |  |  |  | 
26 | CC(C)(C)NCC(O)COc1ccccc1C#N (configuration not stated) |  | 164 °C |  |  |  |  |  | 
27 | c1ccc(Cc2c3ccccc3c(Cc3ccccc3)c3ccccc23)cc1 |  | 246 °C |  |  |  |  |  | 
28 | O=C(O)c1cccc(I)c1 |  | 188 °C |  |  |  |  |  | 
29 | CC(C)CB(CC(C)C)CC(C)C | 188 °C | -88 °C |  |  |  |  |  | 
30 | C=CC=CCC | 73.5 °C |  |  | 2.11 |  |  |  | 
31 | FC(F)(F)C(F)(F)Br | -21 °C |  |  |  |  |  |  | 
32 | CCCOC(=O)c1ccoc1 | 211 °C |  |  |  |  |  |  | 
33 | CC(=O)N(C)C(C)=O | 195 °C | -25 °C |  |  |  |  |  | 
34 | CC[C@]1(O)C[C@H]2C[N@](CCc3c([nH]c4ccccc34)[C@@](C(=O)OC)(c3cc4c(cc3OC)N(C)[C@H]3[C@@](O)(C(N)=O)[C@H](O)[C@]5(CC)C=CCN6CC[C@]43[C@@H]65)C2)C1 |  | 231 °C |  |  |  |  |  | 
35 | COc1ccc(C(Cl)=C(c2ccc(OC)cc2)c2ccc(OC)cc2)cc1 |  | 115 °C |  |  |  |  |  | 
36 | CCC(C)CCC(C)C (configuration not stated) | 136 °C |  |  |  | 0.778 |  |  | 
37 | COC(=O)c1ccccc1S(=O)(=O)NC(=O)Nc1nc(C)nc(OC)n1 |  | 162 °C |  |  |  | 1.54 |  | 
38 | CCOc1ccc(NC(=O)CN)cc1 |  | 100 °C |  |  |  |  |  | 
39 | CC[C@H](C)C(=O)O[C@H]1CCC=C2C=C[C@H](C)[C@H](CC[C@@H]3C[C@@H](O)CC(=O)O3)[C@H]21 |  | 152 °C |  |  |  |  |  | 
40 | CCC=C(C)CC | 112 °C |  |  | 1.91 |  |  |  | 
41 | O=C1c2ccccc2C(=O)c2c(NCCO)cccc21 |  | 168 °C |  | -11 |  |  |  | 
42 | COc1ccc(C[C@H]2c3cc(OC)c(OC)cc3CCN2C)cc1O |  | 176 °C |  |  |  |  |  | 
43 | CN(C)c1ccc(N(C)C)cc1 | 260 °C | 51 °C |  |  |  |  |  | 
44 | COP(=S)(OC)Oc1ccc(Sc2ccc(OP(=S)(OC)OC)cc2)cc1 |  | 30 °C |  |  |  | 5 |  | 
45 | C=CCCCCCCCCCCCCCC | 285 °C | 4.1 °C | readily biodegradable | -2.58 |  |  |  | 
46 | CC(C)(C)c1cccc([N+](=O)[O-])c1 | 254 °C | 2 °C |  |  |  |  |  | 

Row | SMILES | boiling point | melting point | ready biodegradability | log10 vapour pressure (mmHg) | log10 biodegradation half-life (days) | log10 Koc (L/kg) | log10 Henry constant (atm·m³/mol) | log10 Koa
47 | FC(F)(F)C(F)(F)C(F)(F)F | -36.6 °C | -148 °C |  | 3.82 |  |  |  | 
48 | CC(C)(OC1CCCCC1)C(=O)O |  | 75 °C |  |  |  |  |  | 
49 | CCC(C)(O)CCl (configuration not stated) | 151 °C |  |  |  |  |  |  | 
50 | C1=CC=CCC=C1 | 117 °C | -79.5 °C |  | 1.37 |  |  |  | 
51 | NNCCO | 219 °C | -70 °C |  |  |  |  |  | 
52 | Clc1cccc(Cl)c1Cl | 218 °C | 53.5 °C | not readily biodegradable | -0.678 |  | 3.33 | -2.9 | 5.19
53 | CCOCCC#N | 154 °C |  |  |  |  |  |  | 
54 | Clc1cc2oc3cc(Cl)c(Cl)cc3c2cc1Cl |  | 227 °C |  |  |  |  | -4.78 | 10
55 | C#CCN1C(=O)CN=C(c2ccccc2)c2cc(Cl)ccc21 |  | 141 °C |  |  |  |  |  | 
56 | O=Cc1ccccc1F | 175 °C | -44.5 °C |  |  |  |  |  | 
57 | CCc1ccc2c(c1)C(=O)c1ccccc1C2=O |  | 110 °C | not readily biodegradable |  |  |  |  | 
58 | Oc1ccc2ccccc2c1/N=N/c1ccccc1 |  | 134 °C |  |  |  | 3.58 |  | 
59 | N#CCCCCCN | 236 °C | -31.4 °C |  | -0.745 |  |  |  | 
60 | Fc1ccccn1 | 127 °C |  |  |  |  |  |  | 
61 | CC(C)OC(=O)c1cc(-c2nn(C)c(C(F)(F)F)c2Br)c(F)cc1Cl |  | 80 °C |  | -7.15 |  |  |  | 
62 | CCC1CCCC1 | 104 °C | -138 °C |  | 1.6 | 1.18 |  |  | 
63 | Clc1cc2oc3c(Cl)c(Cl)c(Cl)c(Cl)c3c2c(Cl)c1Cl |  |  |  |  |  |  |  | 11.4
64 | CCC(=O)OC(C)(C)C | 118 °C |  |  |  |  |  |  | 
65 | CC(=O)c1ccccc1[N+](=O)[O-] |  | 28.5 °C |  |  |  |  |  | 
66 | C[C@]12CCC(=O)C=C1CC[C@@H]1[C@@H]2[C@@H](O)C[C@@]2(C)[C@H]1CC[C@]2(O)C(=O)CO |  | 218 °C |  |  |  |  |  | 
67 | Clc1ccc2cc[nH]c2c1 |  | 90 °C |  |  |  |  |  | 
68 | CCOC(=O)C1N=C(c2ccccc2F)c2cc(Cl)ccc2NC1=O (configuration not stated) |  | 194 °C |  |  |  |  |  | 
69 | C=CC(F)(F)Br | 42 °C |  |  |  |  |  |  | 

Row | SMILES | boiling point | melting point | ready biodegradability | log10 vapour pressure (mmHg) | log10 biodegradation half-life (days) | log10 Koc (L/kg) | log10 Henry constant (atm·m³/mol) | log10 Koa
70 | CC(=O)[C@H]1CC[C@H]2[C@@H]3CCC4=CC(=O)CC[C@]4(C)[C@H]3CC[C@]12C |  | 121 °C |  |  |  |  |  | 
71 | CN1C2CCC1CC(=O)C2 | 227 °C | 43 °C |  |  |  |  |  | 
72 | CCCCCCCCCCCC(C)=O | 263 °C | 30.5 °C |  | -1.98 |  |  |  | 
73 | O=[N+]([O-])c1cc(C(F)(F)F)ccc1Cl | 222 °C | -2.5 °C |  |  |  |  |  | 
74 | O=C(O)c1ccccc1C(=O)c1ccccc1 | 261 °C | 127 °C |  |  |  |  |  | 
75 | CCOCC(C)C | 81 °C |  |  |  |  |  |  | 
76 | CN(C)Cc1c[nH]c2ccccc12 |  | 138 °C |  |  |  |  |  | 
77 | O=c1ccn([C@@H]2C[C@@H](O)[C@H](CO)O2)c(=O)[nH]1 |  | 163 °C |  |  |  |  |  | 
78 | CC(C)C(C(C)C)C(C)C | 157 °C | -81.7 °C |  |  |  |  |  | 
79 | O=C(O)C(=O)c1ccccc1 |  | 66 °C |  |  |  |  |  | 
80 | O=c1[nH]sc2ccccc12 |  |  | not readily biodegradable |  |  |  |  | 
81 | Clc1ccc(C(c2ccccc2Cl)C(Cl)Cl)cc1 (configuration not stated) |  | 77 °C |  | -5.71 |  |  |  | 
82 | O=C(O)c1c(Br)cccc1Br |  | 150 °C |  |  |  |  |  | 
83 | CCC[Si](C)(C)C | 89 °C |  |  |  |  |  |  | 
84 | O=P(OCC(Br)CBr)(OCC(Br)CBr)OCC(Br)CBr (configuration not stated) |  | 5.5 °C | readily biodegradable |  |  |  |  | 
85 | NCCC(=O)N[C@@H](Cc1c[nH]cn1)C(=O)O |  | 260 °C |  |  |  |  |  | 
86 | CCN(CC)c1ccccc1C | 209 °C | -60 °C |  |  |  |  |  | 
87 | CCOC(=O)C(O)c1ccccc1 (configuration not stated) |  | 35 °C |  |  |  |  |  | 
88 | CN(c1c(Br)cc(Br)cc1Br)c1c([N+](=O)[O-])cc([N+](=O)[O-])cc1C(F)(F)F |  | 150 °C |  | -7.01 |  |  |  | 
89 | COc1c2c(cc3c1OCO3)CCN(C)C2 |  | 56 °C |  |  |  |  |  | 
90 | O=C(CCc1ccccc1)CCc1ccccc1 | 352 °C | 13.5 °C |  |  |  |  |  | 
91 | COC(=O)C1(S(=O)(=O)c2ccccc2)CC1 |  | 74.5 °C |  |  |  |  |  | 
92 | CCCCc1cccc(O)c1 | 248 °C |  |  |  |  |  |  | 

Same assay, conditions: fish

Row | SMILES | log10 biotransformation half-life (days) | log10 BCF
93 | Clc1cc(Cl)c(-c2cc(Cl)c(Cl)c(Cl)c2Cl)c(Cl)c1 | 2.51 | 
94 | Clc1cccc(-c2c(Cl)ccc(Cl)c2Cl)c1 | 2.47 | 
95 | C=CCCCCCCCCCCCCCC | 1.67 | 
96 | Clc1cccc(Cl)c1Cl | 0.92 | 2.82
97 | Clc1cc2oc3cc(Cl)c(Cl)cc3c2cc1Cl | 0.56 | 3.61
98 | CCc1ccc2c(c1)C(=O)c1ccccc1C2=O |  | 0.98
99 | O=[N+]([O-])c1ccc(Cl)c(S(=O)(=O)[O][Na])c1 |  | 0.48
100 | CCCCCCCCc1ccc2ccc3cccc4ccc1c2c34 | 1.26 | 
101 | Clc1ccc(C(c2ccccc2Cl)C(Cl)Cl)cc1 (configuration not stated) | 1.65 | 
102 | O=P(OCC(Br)CBr)(OCC(Br)CBr)OCC(Br)CBr (configuration not stated) |  | 0.51
